Measured values published in the OligoGym collection.
Values joined by “and” are separate entries in the source; they are usually repeats but may differ in a detail not shown here. Identical values can stand only once. After the bases stand the sugars from the 5' end (letter, count) and the backbone: PS all phosphorothioate, else s phosphorothioate and o phosphodiester by linkage. Methylation of C is not given here. e = 2'-O-(2-methoxyethyl) (MOE); k = constrained ethyl (cEt); d = 2'-deoxy (DNA)

Biological target: APOL1
Settings: ASO

| Sequence | target mRNA inhibition (A431, 0.0156 µM) [%] | target mRNA inhibition (A431, 0.0625 µM) | target mRNA inhibition (A431, 0.25 µM) | target mRNA inhibition (A431, 1 µM) | target mRNA inhibition (A431, 2 µM) [%] | target mRNA inhibition (A431, 0.04 µM) |
| --- | --- | --- | --- | --- | --- | --- |
| CGTCAATATATTCTTT (sugars kkddddkekekddddd, PS) | 20 | 41% | 75% | 90% | 94 | – |
| AATTCTATTAGAGGGC (sugars kkddddekekeddddd, PS) | – | – | – | – | 79 | – |
| AGTTTTGTAAGTGCAA (sugars k2 d4 e3 k2 d5, PS) | 10 | 49% | 79% | 93% | 94 | – |
| AAGCTTTAAACTCAGG (sugars k2 d4 e3 k2 d5, PS) | 15 | 48% | 76% | 92% | 95 | – |
| GTCATATCAGATGGGT (sugars k4 d9 k3, PS) | – | 52% | 77% | 91% | – | – |
| GGCAAGGCTAAGTTCC (sugars k4 d9 k3, PS) | – | 41% | 75% | 84% | – | – |
| GAGCGATTGTCTTGTT (sugars k4 d9 k3, PS) | – | 62% and 83% | 85% and 92% | 92% and 95% | – | – |
| ACACATCATTGGGTTA (sugars kkkddddkdkdkdddd, PS) | – | – | – | – | 48 | – |
| GGAATTATGGAATTGC (sugars kkddddkekekddddd, PS) | – | – | – | – | 82 | – |
| CAGTTTTGTAAGTGCA (sugars kddddkekekeddddd, PS) | – | – | – | – | 48 | – |
| ACTCAAGTCAGTACAG (sugars k4 d9 k3, PS) | – | 27% | 58% | 77% | – | – |
| TGAACGCAATGCTGAC (sugars k4 d9 k3, PS) | – | 32% | 74% | 90% | – | – |
| GCTTTAAACTCAGGTG (sugars k4 d9 k3, PS) | – | – | 76% and 79% | 91% and 89% and 82% | – | 11% |
| TTATGAAATTATTGGT (sugars kkdddddkekeddddd, PS) | – | – | – | – | 63 | – |
| CGTCAATATATTCTTT (sugars kkkddddkdkdkdddd, PS) | 23 | 61% | 84% | 93% | 95 | – |
| CAGTTTTGTAAGTGCA (sugars kkkddddkdkdkdddd, PS) | – | – | – | 92% | 93 | 57% and 50% |
| CTTTATACCAGTGTCT (sugars kkddddkekekddddd, PS) | – | – | – | – | 86 | – |
| CAGATGGGTACTTCTG (sugars kdddddkekekddddd, PS) | – | – | – | – | 44 | – |
| TTTTCACCATAGCACG (sugars k4 d9 k3, PS) | – | 33% | 63% | 85% | – | – |
| GTTATATTTGATCCTC (sugars k3 d5 k3 d5, PS) | – | 86% | 93% | 99% | 100 | – |
| GTGTTATATTTGATCC (sugars kkddddekekeddddd, PS) | – | – | – | – | 96 | – |
| CACTTTACATGCACGA (sugars kkdddddddddkekek, PS) | 21 | 38% | 69% | 89% | – | – |
| TGGTCACAGTTCTTGG (sugars k4 d9 k3, PS) | – | 80% | 90% | 95% | – | – |
| GTTTTGTAAGTGCAAC (sugars kkddddkekekkdddd, PS) | – | – | – | – | 62 | – |
| GTATTGCCAGCTAAGG (sugars kdddddkekekddddd, PS) | 29 | 50% | 70% | 87% | 93 | – |

| Sequence | target mRNA inhibition (A431, 0.0156 µM) [%] | target mRNA inhibition (A431, 0.0625 µM) | target mRNA inhibition (A431, 0.25 µM) | target mRNA inhibition (A431, 1 µM) | target mRNA inhibition (A431, 2 µM) [%] | target mRNA inhibition (A431, 0.04 µM) |
| --- | --- | --- | --- | --- | --- | --- |
| ATTCTATTAGAGGGCT (sugars kddddkekekeddddd, PS) | – | – | – | – | 34 | – |
| ATTCTATTAGAGGGCT (sugars k3 d4 k3 e1 d5, PS) | – | – | – | – | 85 | – |
| CTAATTTTCTGACTGT (sugars kkkddddkekekdddd, PS) | – | – | – | – | 90 | – |
| AGATTGGCTCTGGCTC (sugars kddddkekekeddddd, PS) | – | – | – | – | 23 | – |
| AGTTTTGTAAGTGCAA (sugars kkddddkekekddddd, PS) | – | – | – | – | 81 | – |
| TGTTATATTTGATCCT (sugars k3 d10 k3, PS) | – | 67% | 90% | 98% | – | – |
| GTATTGTTTTTGTGGG (sugars kddddkekekeddddd, PS) | – | – | – | – | 70 | – |
| TTTGTAAGTGCAACCA (sugars kkddddekekeddddd, PS) | 29 | 59% | 83% | 96% | 97 | – |
| CAACACATCATTGGGT (sugars kkddddkekekddddd, PS) | – | – | – | – | 43 | – |
| GAAGATTGGCTCTGGC (sugars kkkddddkekeddddd, PS) | – | – | – | – | 75 | – |
| ATGCTAATTTTCTGAC (sugars kkddddekekeddddd, PS) | – | – | – | – | 95 | – |
| TCAGATGGGTACTTCT (sugars k2 d4 e3 k2 d5, PS) | – | – | – | – | 88 | – |
| TCTGTTAGATACAAAC (sugars k4 d9 k3, PS) | – | 34% | 63% | 78% | – | – |
| TGAAGATTGGCTCTGG (sugars k3 d4 k3 e1 d5, PS) | – | – | – | – | 61 | – |
| TTTATACCAGTGTCTT (sugars kkddddekekeddddd, PS) | – | – | – | – | 90 | – |
| CAACACATCATTGGGT (sugars kkkddddkekekdddd, PS) | – | – | – | – | 30 | – |
| AAGCTTTAAACTCAGG (sugars k3 d4 k3 e1 d5, PS) | – | – | – | – | 72 | – |
| GCTTTAAACTCAGGTG (sugars kkddddkekekddddd, PS) | – | – | – | – | 86 | – |
| GTATTTCTTGATGTGG (sugars kkkddddkekeddddd, PS) | 50 | 80% | 96% | 97% | 98 | – |
| TATTCTCATGGTACAG (sugars k3 d4 k3 e1 d5, PS) | – | – | – | – | 79 | – |
| AATAATGGTAGGTCTA (sugars k4 d9 k3, PS) | – | 41% | 71% | 84% | – | – |
| GTGTTATATTTGATCC (sugars k2 d4 e3 k2 d5, PS) | – | – | – | 98% | 98 | 52% and 50% |
| TGTTATATTTGATCCT (sugars kkddddkekekkdddd, PS) | – | – | – | – | 46 | – |
| CGCAATGCTGACTTGG (sugars kkddddkdkdkddddd, PS) | – | – | – | – | 94 | – |
| GTATTTCTTGATGTGG (sugars kkddddkekekkdddd, PS) | – | – | – | – | 52 | – |

| Sequence | target mRNA inhibition (A431, 0.0156 µM) [%] | target mRNA inhibition (A431, 0.0625 µM) | target mRNA inhibition (A431, 0.25 µM) | target mRNA inhibition (A431, 1 µM) | target mRNA inhibition (A431, 2 µM) [%] | target mRNA inhibition (A431, 0.04 µM) |
| --- | --- | --- | --- | --- | --- | --- |
| TGATGTGGGACTTGTT (sugars k4 d9 k3, PS) | – | 61% | 84% | 93% | – | – |
| GTGTTATATTTGATCC (sugars kkkddddkekekdddd, PS) | – | – | – | – | 75 | – |
| GCTAATTTTCTGACTG (sugars kkkddddkdkdkdddd, PS) | 40 | 66% | 85% | 93% | 93 | 34% |
| TACATTTGGAGATCTG (sugars k4 d9 k3, PS) | – | 61% | 80% | 90% | – | – |
| TGTTATATTTGATCCT (sugars kddddkekekeddddd, PS) | – | – | – | – | 51 | – |
| AGTATTGCCAGCTAAG (sugars k3 d4 k3 e1 d5, PS) | – | – | – | – | 89 | – |
| TGGTTCAAAAGCAGCA (sugars k2 d4 e3 k2 d5, PS) | 41 | 68% | 85% | 91% | 93 | – |
| GGGAAATGAACGCAAT (sugars k4 d9 k3, PS) | – | 22% | 60% | 83% | – | – |
| TTACATGCACGATCTC (sugars k3 d10 k3, PS) | – | 18% | 56% | 78% | – | – |
| CATTCAGAATTTCCAC (sugars kkkddddkekeddddd, PS) | – | – | – | – | 86 | – |
| CTAATTTTCTGACTGT (sugars kkddddekekeddddd, PS) | – | – | – | – | 90 | – |
| GTTCAAAAGCAGCATT (sugars kddddkekekeddddd, PS) | – | – | – | – | 33 | – |
| GTGTATTTCTTGATGT (sugars kkddddekekeddddd, PS) | 36 | 65% | 83% | 92% | 94 | – |
| GTTATGAAATTATTGG (sugars kkdddddkekeddddd, PS) | – | – | – | – | 68 | – |
| GTTTCATATTCACCCG (sugars k4 d9 k3, PS) | – | 82% | 92% | 97% | – | – |
| TATTTCTTGATGTGGT (sugars kkkddddkekekdddd, PS) | 17 | 61% | 80% | 89% | 95 | – |
| GGAATTATGGAATTGC (sugars kkkddddkekekdddd, PS) | – | – | – | – | 66 | – |
| CTTCTTATGTTATCCT (sugars k4 d9 k3, PS) | – | 35% | 72% | 85% | – | – |
| GAATTATGGAATTGCA (sugars k2 d4 e4 k2 d4, PS) | – | – | – | – | 95 | – |
| TTTCATATTCACCCGA (sugars k4 d9 k3, PS) | – | 46% | 68% | 86% | – | – |
| TCTATTAGAGGGCTAG (sugars kddddkekekeddddd, PS) | – | – | – | – | 37 | – |
| TGTTTGCATTTGGGTC (sugars k4 d9 k3, PS) | – | 90% and 83% | 98% and 94% | 99% and 96% | – | – |
| AAGTATTGCCAGCTAA (sugars kdddddkekekddddd, PS) | – | – | – | – | 54 | – |
